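All cell lines were grown in 96-well plates and treated with compound for 48 hours. GI50 = concentration required for 50% inhibition of growth. TGI is the concentration that stops growth completely.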
Tests used:
Assay in all cases: NCI-60 cell line screen, 48 h
IGROV1 ovarian = system: IGROV1 ovarian
HL-60(TB) leukemia = system: HL-60(TB) leukemia
UACC-62 melanoma = system: UACC-62 melanoma
K-562 leukemia = system: K-562 leukemia
MDA-MB-468 breast = system: MDA-MB-468 breast
MDA-MB-435 = system: MDA-MB-435
SR leukemia = system: SR leukemia
BT-549 breast = system: BT-549 breast
KM12 colon = system: KM12 colon
RPMI-8226 leukemia = system: RPMI-8226 leukemia
TK-10 renal = system: TK-10 renal
SK-MEL-5 melanoma = system: SK-MEL-5 melanoma
A549 NSCLC = system: A549 NSCLC
NCI-H226 lung = system: NCI-H226 lung
SF-539 CNS = system: SF-539 CNS
CAKI-1 renal = system: CAKI-1 renal
NCI-H23 lung = system: NCI-H23 lung
M14 melanoma = system: M14 melanoma
SW-620 colon = system: SW-620 colon
SK-MEL-28 melanoma = system: SK-MEL-28 melanoma
NCI/ADR-RES ovarian = system: NCI/ADR-RES ovarian
SK-OV-3 ovarian = system: SK-OV-3 ovarian
SNB-19 CNS = system: SNB-19 CNS
OVCAR-4 ovarian = system: OVCAR-4 ovarian
DU-145 prostate = system: DU-145 prostate
SF-268 CNS = system: SF-268 CNS
HCC-2998 colon = system: HCC-2998 colon
PC-3 prostate = system: PC-3 prostate
HS 578T breast = system: HS 578T breast
HT29 colon = system: HT29 colon
SN12C renal = system: SN12C renal
MOLT-4 leukemia = system: MOLT-4 leukemia
HCT-116 colon = system: HCT-116 colon
NCI-H460 lung = system: NCI-H460 lung
786-0 renal = system: 786-0 renal
A498 renal = system: A498 renal
OVCAR-8 ovarian = system: OVCAR-8 ovarian
U251 CNS = system: U251 CNS
LOX IMVI melanoma = system: LOX IMVI melanoma
COLO 205 colon = system: COLO 205 colon
SK-MEL-2 melanoma = system: SK-MEL-2 melanoma
EKVX NSCLC = system: EKVX NSCLC
MCF7 breast = system: MCF7 breast
NCI-H522 lung = system: NCI-H522 lung
HOP-92 NSCLC = system: HOP-92 NSCLC
SF-295 CNS = system: SF-295 CNS
OVCAR-3 ovarian = system: OVCAR-3 ovarian
CCRF-CEM leukemia = system: CCRF-CEM leukemia
OVCAR-5 ovarian = system: OVCAR-5 ovarian
ACHN renal = system: ACHN renal
MDA-MB-231 breast = system: MDA-MB-231 breast
HCT-15 colon = system: HCT-15 colon
UO-31 renal = system: UO-31 renal
RXF 393 renal = system: RXF 393 renal
UACC-257 melanoma = system: UACC-257 melanoma
HOP-62 NSCLC = system: HOP-62 NSCLC
SNB-75 CNS = system: SNB-75 CNS
MALME-3M melanoma = system: MALME-3M melanoma

OCCNc1oc(-c2ccccc2)nc1[P+](c1ccccc1)(c1ccccc1)c1ccccc1
GI50 (IGROV1 ovarian): 2.57 µM
TGI (IGROV1 ovarian): 8.53 µM
GI50 (HL-60(TB) leukemia): 1.57 µM
TGI (HL-60(TB) leukemia): 5.33 µM
GI50 (UACC-62 melanoma): 1.63 µM
TGI (UACC-62 melanoma): 4.28 µM
GI50 (K-562 leukemia): 2.5 µM
TGI (K-562 leukemia): 20.7 µM
GI50 (MDA-MB-468 breast): 1.08 µM
TGI (MDA-MB-468 breast): 4.35 µM
GI50 (MDA-MB-435): 2.99 µM
TGI (MDA-MB-435): 11.3 µM
GI50 (SR leukemia): 5.12 µM
TGI (SR leukemia): 22.8 µM
GI50 (BT-549 breast): 2.51 µM
TGI (BT-549 breast): 7.88 µM
GI50 (KM12 colon): 3.21 µM
TGI (KM12 colon): 11.2 µM
GI50 (RPMI-8226 leukemia): 0.956 µM
TGI (RPMI-8226 leukemia): 11.7 µM
GI50 (TK-10 renal): 6 µM
TGI (TK-10 renal): 23.1 µM
GI50 (SK-MEL-5 melanoma): 1.52 µM
TGI (SK-MEL-5 melanoma): 2.92 µM
GI50 (A549 NSCLC): 18.5 µM
TGI (A549 NSCLC): > 100 µM
GI50 (NCI-H226 lung): 4.05 µM
TGI (NCI-H226 lung): 24.5 µM
GI50 (SF-539 CNS): 5.63 µM
TGI (SF-539 CNS): 19.5 µM
GI50 (CAKI-1 renal): 11.5 µM
TGI (CAKI-1 renal): 43.1 µM
GI50 (NCI-H23 lung): 4.3 µM
TGI (NCI-H23 lung): 23.8 µM
GI50 (M14 melanoma): 4.4 µM
TGI (M14 melanoma): 20.2 µM
GI50 (SW-620 colon): 4.74 µM
TGI (SW-620 colon): 35.5 µM
GI50 (SK-MEL-28 melanoma): 2.59 µM
TGI (SK-MEL-28 melanoma): 11.4 µM
GI50 (NCI/ADR-RES ovarian): > 100 µM
TGI (NCI/ADR-RES ovarian): > 100 µM
GI50 (SK-OV-3 ovarian): 3.58 µM
TGI (SK-OV-3 ovarian): 16.6 µM
GI50 (SNB-19 CNS): 2.82 µM
TGI (SNB-19 CNS): 10.9 µM
GI50 (OVCAR-4 ovarian): 3.68 µM
TGI (OVCAR-4 ovarian): 59.4 µM
GI50 (DU-145 prostate): 6.1 µM
TGI (DU-145 prostate): 21.3 µM
GI50 (SF-268 CNS): 3.4 µM
TGI (SF-268 CNS): 16.6 µM
GI50 (HCC-2998 colon): 3.3 µM
TGI (HCC-2998 colon): 11.7 µM
GI50 (PC-3 prostate): 2.22 µM
TGI (PC-3 prostate): 11.1 µM
GI50 (HS 578T breast): 3.21 µM
TGI (HS 578T breast): 13.3 µM
GI50 (HT29 colon): 3.04 µM
TGI (HT29 colon): 17.5 µM
GI50 (SN12C renal): 2.82 µM
TGI (SN12C renal): 8.53 µM
GI50 (MOLT-4 leukemia): 4.43 µM
TGI (MOLT-4 leukemia): 35.1 µM
GI50 (HCT-116 colon): 4.8 µM
TGI (HCT-116 colon): 35.1 µM
GI50 (NCI-H460 lung): 3.29 µM
TGI (NCI-H460 lung): 13.6 µM
GI50 (786-0 renal): 13.2 µM
TGI (786-0 renal): 29.8 µM
GI50 (A498 renal): 15.4 µM
TGI (A498 renal): 48.2 µM
GI50 (OVCAR-8 ovarian): 3.79 µM
TGI (OVCAR-8 ovarian): 15.2 µM
GI50 (U251 CNS): 3.28 µM
TGI (U251 CNS): 15.4 µM
GI50 (LOX IMVI melanoma): 3.93 µM
TGI (LOX IMVI melanoma): 14.6 µM
GI50 (COLO 205 colon): 2.14 µM
TGI (COLO 205 colon): 7.86 µM
GI50 (SK-MEL-2 melanoma): 2.58 µM
TGI (SK-MEL-2 melanoma): 7.18 µM
GI50 (EKVX NSCLC): 5.1 µM
TGI (EKVX NSCLC): 28.3 µM
GI50 (MCF7 breast): 2.69 µM
TGI (MCF7 breast): 12.5 µM
GI50 (NCI-H522 lung): 2.15 µM
TGI (NCI-H522 lung): 9.32 µM
GI50 (HOP-92 NSCLC): 1.35 µM
TGI (HOP-92 NSCLC): 6.73 µM
GI50 (SF-295 CNS): 10.5 µM
TGI (SF-295 CNS): 24.2 µM
GI50 (OVCAR-3 ovarian): 2.35 µM
TGI (OVCAR-3 ovarian): 11 µM
GI50 (CCRF-CEM leukemia): 3.07 µM
TGI (CCRF-CEM leukemia): 19.9 µM
GI50 (OVCAR-5 ovarian): 5.06 µM
TGI (OVCAR-5 ovarian): 34.2 µM
GI50 (ACHN renal): 18.8 µM
TGI (ACHN renal): 85.1 µM
GI50 (MDA-MB-231 breast): 1.87 µM
TGI (MDA-MB-231 breast): 5.2 µM
GI50 (HCT-15 colon): 29.8 µM
TGI (HCT-15 colon): > 100 µM
GI50 (UO-31 renal): 20.4 µM
TGI (UO-31 renal): 71 µM
GI50 (RXF 393 renal): 1.86 µM
TGI (RXF 393 renal): 9.35 µM
GI50 (UACC-257 melanoma): 2.65 µM
TGI (UACC-257 melanoma): 8.47 µM
GI50 (HOP-62 NSCLC): 10 µM
TGI (HOP-62 NSCLC): 34.4 µM
GI50 (SNB-75 CNS): 1.85 µM
TGI (SNB-75 CNS): 7.92 µM
GI50 (MALME-3M melanoma): 1.95 µM
TGI (MALME-3M melanoma): 6.52 µM
